ChEMBL document CHEMBL1151757, “Synthesis, radiosynthesis, and biological evaluation of fluorine-18-labeled 2beta-carbo(fluoroalkoxy)-3beta-(3'-((Z)-2-haloethenyl)phenyl)nortropanes: candidate radioligands for in vivo imaging of the serotonin transporter with positron emission tomography” (J Med Chem, 2008)

Tests used:
[1] = Drug uptake in anesthetized cynomolgus monkey brain occipital lobe after 185 mins postinjection; format: ADME, organism-based, Macaca fascicularis; conditions: in vivo
[2] = Drug uptake in anesthetized cynomolgus monkey brain frontal lobe after 185 mins postinjection; format: ADME, organism-based, Macaca fascicularis; conditions: in vivo
[3] = Ratio of drug uptake in caudate to cerebellum in anesthetized cynomolgus monkey after 185 mins postinjection; format: ADME, organism-based, Macaca fascicularis; conditions: in vivo
[4] = Ratio of drug uptake in thalamus to cerebellum in anesthetized cynomolgus monkey after 205 mins postinjection; format: ADME, organism-based, Macaca fascicularis; conditions: in vivo
[5] = Ratio of drug uptake in pons to cerebellum in anesthetized cynomolgus monkey after 165 mins postinjection; format: ADME, organism-based, Macaca fascicularis; conditions: in vivo, 2.75 h
[6] = Drug uptake in awake rhesus monkey occipital lobe after 55 mins postinjection; format: ADME, organism-based, Macaca mulatta; conditions: in vivo
[7] = Drug uptake in awake rhesus monkey brain medulla after 35 mins postinjection; format: ADME, organism-based, Macaca mulatta; conditions: in vivo
[8] = Ratio of drug uptake in pons to cerebellum in awake rhesus monkey after 2.8 mins postinjection; format: ADME, organism-based, Macaca mulatta; conditions: in vivo, 168 s
[9] = Ratio of drug uptake in frontal lobe to cerebellum in awake rhesus monkey after 2.8 mins postinjection; format: ADME, organism-based, Macaca mulatta; conditions: in vivo, 168 s
[10] = Ratio of drug uptake in occipital lobe to cerebellum in awake rhesus monkey after 0.8 mins postinjection; format: ADME, organism-based, Macaca mulatta; conditions: in vivo, 48 s
[11] = Ratio of drug uptake in occipital lobe to cerebellum in awake rhesus monkey after 13.5 mins postinjection; format: ADME, organism-based, Macaca mulatta; conditions: in vivo, 0.225 h
[12] = Ratio of drug uptake in occipital lobe to cerebellum in awake rhesus monkey after 10.5 mins postinjection; format: ADME, organism-based, Macaca mulatta; conditions: in vivo, 0.175 h
[13] = Ratio of drug uptake in occipital lobe to cerebellum in awake rhesus monkey after 7.5 mins postinjection; format: ADME, organism-based, Macaca mulatta; conditions: in vivo, 0.125 h
[14] = Ratio of drug uptake in occipital lobe to cerebellum in awake rhesus monkey after 4.5 mins postinjection; format: ADME, organism-based, Macaca mulatta; conditions: in vivo, 0.075 h
[15] = Ratio of drug uptake in caudate to cerebellum in awake rhesus monkey after 25 mins postinjection; format: ADME, organism-based, Macaca mulatta; conditions: in vivo
[16] = Drug uptake in awake rhesus monkey brain putamen after 65 mins postinjection; format: ADME, organism-based, Macaca mulatta; conditions: in vivo
[17] = Drug uptake in awake rhesus monkey brain putamen after 75 mins postinjection; format: ADME, organism-based, Macaca mulatta; conditions: in vivo, 1.25 h
[18] = Drug uptake in awake rhesus monkey occipital lobe after 35 mins postinjection; format: ADME, organism-based, Macaca mulatta; conditions: in vivo
[19] = Drug uptake in awake rhesus monkey brain caudate after 95 mins postinjection; format: ADME, organism-based, Macaca mulatta, Caudate nucleus; conditions: in vivo
[20] = Drug uptake in awake rhesus monkey occipital lobe after 25 mins postinjection; format: ADME, organism-based, Macaca mulatta; conditions: in vivo
[21] = target: Sodium-dependent dopamine transporter (Homo sapiens, UniProt Q01959); assay: Displacement of [3H]RTI-55 from human DAT transfected in human HEK293 cells; format: cell-based
Chain of Sodium-dependent dopamine transporter (Q01959 whole entry): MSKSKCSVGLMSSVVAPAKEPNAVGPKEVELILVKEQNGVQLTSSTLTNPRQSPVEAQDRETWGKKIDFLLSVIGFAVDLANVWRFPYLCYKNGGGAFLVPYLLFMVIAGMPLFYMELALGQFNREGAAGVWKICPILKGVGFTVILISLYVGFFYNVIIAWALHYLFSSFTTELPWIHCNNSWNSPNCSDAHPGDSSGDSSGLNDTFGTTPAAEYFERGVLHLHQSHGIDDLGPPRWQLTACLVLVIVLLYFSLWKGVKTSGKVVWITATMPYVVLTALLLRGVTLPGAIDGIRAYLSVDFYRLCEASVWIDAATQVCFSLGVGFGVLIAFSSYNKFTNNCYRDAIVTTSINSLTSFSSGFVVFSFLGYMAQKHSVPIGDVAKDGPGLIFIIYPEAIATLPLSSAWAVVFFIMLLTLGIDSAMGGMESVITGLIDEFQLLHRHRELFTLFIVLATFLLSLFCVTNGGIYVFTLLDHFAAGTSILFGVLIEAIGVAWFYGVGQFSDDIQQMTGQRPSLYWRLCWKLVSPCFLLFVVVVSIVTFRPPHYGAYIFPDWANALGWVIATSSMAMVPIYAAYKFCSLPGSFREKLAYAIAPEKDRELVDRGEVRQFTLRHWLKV

[22] = Ratio of drug uptake in pons to cerebellum in awake rhesus monkey after 55 mins postinjection; format: ADME, organism-based, Macaca mulatta; conditions: in vivo
[23] = Ratio of drug uptake in pons to cerebellum in awake rhesus monkey after 105 mins postinjection; format: ADME, organism-based, Macaca mulatta; conditions: in vivo, 1.75 h
[24] = Ratio of drug uptake in thalamus to cerebellum in awake rhesus monkey after 115 mins postinjection; format: ADME, organism-based, Macaca mulatta; conditions: in vivo
[25] = Ratio of drug uptake in frontal lobe to cerebellum in awake rhesus monkey after 4.5 mins postinjection; format: ADME, organism-based, Macaca mulatta; conditions: in vivo, 0.075 h
[26] = Drug uptake in awake rhesus monkey occipital lobe after 4.5 mins postinjection; format: ADME, organism-based, Macaca mulatta; conditions: in vivo, 0.075 h
[27] = Ratio of drug uptake in medulla to cerebellum in awake rhesus monkey after 4.5 mins postinjection; format: ADME, organism-based, Macaca mulatta; conditions: in vivo, 0.075 h
[28] = Ratio of drug uptake in occipital lobe to cerebellum in awake rhesus monkey after 65 mins postinjection; format: ADME, organism-based, Macaca mulatta; conditions: in vivo
[29] = Drug uptake in awake rhesus monkey putamen after 0.3 mins postinjection; format: ADME, organism-based, Macaca mulatta; conditions: in vivo, 0.005 h
[30] = Drug uptake in awake rhesus monkey cerebellum after 0.3 mins postinjection; format: ADME, organism-based, Macaca mulatta; conditions: in vivo, 0.005 h
[31] = Drug uptake in awake rhesus monkey cerebellum after 1.3 mins postinjection; format: ADME, organism-based, Macaca mulatta; conditions: in vivo, 78 s
[32] = Drug uptake in awake rhesus monkey frontal lobe after 1.3 mins postinjection; format: ADME, organism-based, Macaca mulatta; conditions: in vivo, 78 s
[33] = Ratio of drug uptake in caudate to cerebellum in awake rhesus monkey after 2.8 mins postinjection; format: ADME, organism-based, Macaca mulatta; conditions: in vivo, 168 s
[34] = Ratio of drug uptake in putamen to cerebellum in awake rhesus monkey after 0.8 mins postinjection; format: ADME, organism-based, Macaca mulatta; conditions: in vivo, 48 s
[35] = Drug uptake in anesthetized cynomolgus monkey brain occipital lobe after 202.5 mins postinjection; format: ADME, organism-based, Macaca fascicularis; conditions: in vivo, 3.375 h
[36] = Protein binding in anesthetized cynomolgus monkey plasma after 1 min postinjection; format: ADME, organism-based, Macaca fascicularis; conditions: read-out: PPB (converted)
[37] = Protein binding in anesthetized cynomolgus monkey plasma after 5 mins postinjection; format: ADME, organism-based, Macaca fascicularis; conditions: read-out: PPB (converted)
[38] = Protein binding in anesthetized cynomolgus monkey plasma after 15 mins postinjection; format: ADME, organism-based, Macaca fascicularis; conditions: read-out: PPB (converted)
[39] = Protein binding in anesthetized cynomolgus monkey plasma after 180 mins postinjection; format: ADME, organism-based, Macaca fascicularis; conditions: read-out: PPB (converted)
Putamen = assay: Drug uptake in anesthetized cynomolgus monkey brain putamen after 207.5 mins postinjection; format: ADME, organism-based, Macaca fascicularis; conditions: in vivo
[40] = Drug uptake in awake rhesus monkey brain medulla after 1.25 mins postinjection; format: ADME, organism-based, Macaca mulatta; conditions: in vivo, 75 s
Midbrain = assay: Drug uptake in anesthetized cynomolgus monkey brain midbrain after 187.5 mins postinjection; format: ADME, organism-based, Macaca fascicularis; conditions: in vivo, 3.125 h
[41] = Drug uptake in awake rhesus monkey brain pons after 1.25 mins postinjection; format: ADME, organism-based, Macaca mulatta; conditions: in vivo, 75 s
[42] = Drug uptake in awake rhesus monkey brain midbrain after 1.25 mins postinjection; format: ADME, organism-based, Macaca mulatta; conditions: in vivo, 75 s
[43] = Ratio of drug uptake in caudate to cerebellum in awake rhesus monkey after 13.5 mins postinjection; format: ADME, organism-based, Macaca mulatta; conditions: in vivo, 0.225 h
[44] = Drug uptake in awake rhesus monkey brain putamen after 115 mins postinjection; format: ADME, organism-based, Macaca mulatta; conditions: in vivo
[45] = Drug uptake in awake rhesus monkey brain caudate after 1.25 mins postinjection; format: ADME, organism-based, Macaca mulatta, Caudate nucleus; conditions: in vivo, 75 s
[46] = Drug uptake in awake rhesus monkey brain thalamus after 1.25 mins postinjection; format: ADME, organism-based, Macaca mulatta; conditions: in vivo, 75 s
[47] = Ratio of drug uptake in medulla to cerebellum in awake rhesus monkey after 45 mins postinjection; format: ADME, organism-based, Macaca mulatta; conditions: in vivo, 0.75 h
[48] = Ratio of drug uptake in medulla to cerebellum in awake rhesus monkey after 85 mins postinjection; format: ADME, organism-based, Macaca mulatta; conditions: in vivo
Medulla [49] = assay: Drug uptake in anesthetized cynomolgus monkey brain medulla after 197.5 mins postinjection; format: ADME, organism-based, Macaca fascicularis; conditions: in vivo
Medulla [50] = assay: Drug uptake in anesthetized cynomolgus monkey brain medulla after 202.5 mins postinjection; format: ADME, organism-based, Macaca fascicularis; conditions: in vivo, 3.375 h
[51] = Drug uptake in anesthetized cynomolgus monkey brain cerebellum after 207.5 mins postinjection; format: ADME, organism-based, Macaca fascicularis; conditions: in vivo
Caudate = assay: Drug uptake in anesthetized cynomolgus monkey brain caudate after 187.5 mins postinjection; format: ADME, organism-based, Macaca fascicularis, Caudate nucleus; conditions: in vivo, 3.125 h
[52] = Ratio of drug uptake in frontal lobe to cerebellum in awake rhesus monkey after 45 mins postinjection; format: ADME, organism-based, Macaca mulatta; conditions: in vivo, 0.75 h
[53] = Ratio of drug uptake in frontal lobe to cerebellum in awake rhesus monkey after 55 mins postinjection; format: ADME, organism-based, Macaca mulatta; conditions: in vivo
[54] = Ratio of drug uptake in frontal lobe to cerebellum in awake rhesus monkey after 75 mins postinjection; format: ADME, organism-based, Macaca mulatta; conditions: in vivo, 1.25 h
[55] = Ratio of drug uptake in midbrain to cerebellum in awake rhesus monkey after 35 mins postinjection; format: ADME, organism-based, Macaca mulatta; conditions: in vivo
Thalamus = assay: Drug uptake in anesthetized cynomolgus monkey brain thalamus after 192.5 mins postinjection; format: ADME, organism-based, Macaca fascicularis; conditions: in vivo
[56] = Drug uptake in anesthetized cynomolgus monkey brain occipital lobe after 182.5 mins postinjection; format: ADME, organism-based, Macaca fascicularis; conditions: in vivo
[57] = Drug uptake in anesthetized cynomolgus monkey brain occipital lobe after 207.5 mins postinjection; format: ADME, organism-based, Macaca fascicularis; conditions: in vivo
[58] = Drug uptake in anesthetized cynomolgus monkey brain frontal lobe after 202.5 mins postinjection; format: ADME, organism-based, Macaca fascicularis; conditions: in vivo, 3.375 h
[59] = Drug uptake in anesthetized cynomolgus monkey brain frontal lobe after 207.5 mins postinjection; format: ADME, organism-based, Macaca fascicularis; conditions: in vivo
[60] = Drug uptake in anesthetized cynomolgus monkey brain cerebellum after 187.5 mins postinjection; format: ADME, organism-based, Macaca fascicularis; conditions: in vivo, 3.125 h

Structure (SMILES): O=C(OCC[18F])C1C2CCC(CC1c1cccc(/C=C\Br)c1)N2 (configuration not stated)
- Drug uptake [1]: 2.37
- Drug uptake [2]: 2.29
- Ratio [3]: 1.8
- Ratio [4]: 1.8

Structure (SMILES): O=C(OCCC[18F])C1C2CCC(CC1c1cccc(/C=C\I)c1)N2 (configuration not stated)
- Drug uptake [1]: 2.39
- Drug uptake [2]: 2.03
- Ratio [3]: 1.3
- Ratio [4]: 1.6

Structure (SMILES): O=C(OCC[18F])C1C2CCC(CC1c1ccc(/C=C\I)cc1)N2 (configuration not stated)
- Ratio [5]: 2.6
- Drug uptake [6]: 2.73
- Drug uptake [7]: 2.46
- Ratio [8]: 1
- Ratio [9]: 0.9
- Ratio [10]: 1.9
- Ratio [11]: 1
- Ratio [12]: 0.9
- Ratio [13]: 1
- Ratio [14]: 0.9
- Ratio [15]: 1.3
- Drug uptake [16]: 3.31
- Drug uptake [17]: 3.38
- Drug uptake [18]: 2.65
- Drug uptake [19]: 3.19
- Drug uptake [20]: 2.48
- Ki [21]: 0.013 µM
- Ratio [22]: 1.3
- Ratio [23]: 1.8
- Ratio [24]: 2.6
- Ratio [25]: 0.9
- Drug uptake [26]: 0.96
- Ratio [27]: 1.3
- Ratio [28]: 1.6
- Drug uptake [29]: 0.05
- Drug uptake [30]: 0.01
- Drug uptake [31]: 0.06
- Drug uptake [32]: 0.05
- Ratio [33]: 1
- Ratio [34]: 7.2

Structure (SMILES): O=C(OCC[18F])C1C2CCC(CC1c1cccc(/C=C\I)c1)N2 (configuration not stated)
- Drug uptake [35]: 1.33
- fraction unbound at 1 min [36]: 0.942
- fraction unbound at 5 min [37]: 0.925
- fraction unbound at 0.25 h [38]: 0.932
- fraction unbound at 3 h [39]: 0.915
- Drug uptake (Putamen): 2.58
- Drug uptake [40]: 0.01
- Drug uptake (Midbrain): 3.37
- Drug uptake [7]: 0.12
- Drug uptake [41]: 0.01
- Drug uptake [42]: 0.01
- Ratio [43]: 1.1
- Ratio [15]: 1.2
- Drug uptake [16]: 0.16
- Drug uptake [17]: 0.17
- Drug uptake [44]: 0.13
- Drug uptake [45]: 0.01
- Drug uptake [19]: 0.14
- Drug uptake [46]: 0.01
- Ratio [47]: 1
- Ratio [48]: 1.1
- Drug uptake (Medulla [49]): 2.51
- Drug uptake (Medulla [50]): 2.54
- Drug uptake [51]: 1.4
- Drug uptake (Caudate): 2.26
- Ratio [52]: 1
- Ratio [53]: 1
- Ratio [54]: 1.1
- Ratio [27]: 1.1
- Ratio [55]: 1.3
- Drug uptake (Thalamus): 2.56

Structure (SMILES): O=C(OCCC[18F])C1C2CCC(CC1c1cccc(/C=C\Br)c1)N2 (configuration not stated)
- Drug uptake [56]: 2.93
- Drug uptake [35]: 2.71
- Drug uptake [57]: 2.68
- Drug uptake [58]: 2.23
- Drug uptake [59]: 2.03
- Drug uptake (Putamen): 3.65
- Drug uptake (Midbrain): 4.65
- Drug uptake (Medulla [49]): 3.73
- Drug uptake (Medulla [50]): 3.68
- Drug uptake [60]: 2.35
- Drug uptake [51]: 1.86
- Drug uptake (Caudate): 3.83
- Drug uptake (Thalamus): 3.83
